The values below come from ChEMBL document CHEMBL1139987 (Bioorg Med Chem Lett, 2007).

By IC50 is commonly meant the concentration that inhibits the measured activity by half. Lower therefore signals inhibition by little substance.

Assay [1] addresses Insulin-like growth factor 1 receptor (Homo sapiens, UniProt P08069). In words: Inhibition of IGF1R.
A further assay deals with MCF7. In words: Inhibition of IGF1 mediated cell growth in MCF7 cells. The following applies: Homo sapiens.
Assay [2] deals with T1, Polyunsaturated fatty acid lipoxygenase ALOX15 (Homo sapiens, UniProt P16050).
T1 sequence (P16050 whole entry): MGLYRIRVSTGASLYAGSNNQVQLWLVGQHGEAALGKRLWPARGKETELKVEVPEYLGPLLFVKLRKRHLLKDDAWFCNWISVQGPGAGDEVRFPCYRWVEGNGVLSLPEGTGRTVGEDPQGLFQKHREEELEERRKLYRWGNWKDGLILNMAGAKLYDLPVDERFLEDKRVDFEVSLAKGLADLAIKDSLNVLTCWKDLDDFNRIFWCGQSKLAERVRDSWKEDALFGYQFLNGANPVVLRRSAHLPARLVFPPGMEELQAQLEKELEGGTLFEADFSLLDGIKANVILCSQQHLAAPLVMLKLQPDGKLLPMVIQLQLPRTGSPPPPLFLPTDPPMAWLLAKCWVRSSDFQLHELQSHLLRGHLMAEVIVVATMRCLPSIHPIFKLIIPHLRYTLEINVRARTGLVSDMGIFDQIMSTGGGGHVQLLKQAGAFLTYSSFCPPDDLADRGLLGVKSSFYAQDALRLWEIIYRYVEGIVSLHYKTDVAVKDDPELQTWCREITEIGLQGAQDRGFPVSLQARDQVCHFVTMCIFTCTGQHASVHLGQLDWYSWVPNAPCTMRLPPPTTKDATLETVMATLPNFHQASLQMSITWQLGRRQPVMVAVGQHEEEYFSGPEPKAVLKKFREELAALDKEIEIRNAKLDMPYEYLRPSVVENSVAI

Insulin-like growth factor 1 receptor, sequence (P08069 31-736 limits assumed): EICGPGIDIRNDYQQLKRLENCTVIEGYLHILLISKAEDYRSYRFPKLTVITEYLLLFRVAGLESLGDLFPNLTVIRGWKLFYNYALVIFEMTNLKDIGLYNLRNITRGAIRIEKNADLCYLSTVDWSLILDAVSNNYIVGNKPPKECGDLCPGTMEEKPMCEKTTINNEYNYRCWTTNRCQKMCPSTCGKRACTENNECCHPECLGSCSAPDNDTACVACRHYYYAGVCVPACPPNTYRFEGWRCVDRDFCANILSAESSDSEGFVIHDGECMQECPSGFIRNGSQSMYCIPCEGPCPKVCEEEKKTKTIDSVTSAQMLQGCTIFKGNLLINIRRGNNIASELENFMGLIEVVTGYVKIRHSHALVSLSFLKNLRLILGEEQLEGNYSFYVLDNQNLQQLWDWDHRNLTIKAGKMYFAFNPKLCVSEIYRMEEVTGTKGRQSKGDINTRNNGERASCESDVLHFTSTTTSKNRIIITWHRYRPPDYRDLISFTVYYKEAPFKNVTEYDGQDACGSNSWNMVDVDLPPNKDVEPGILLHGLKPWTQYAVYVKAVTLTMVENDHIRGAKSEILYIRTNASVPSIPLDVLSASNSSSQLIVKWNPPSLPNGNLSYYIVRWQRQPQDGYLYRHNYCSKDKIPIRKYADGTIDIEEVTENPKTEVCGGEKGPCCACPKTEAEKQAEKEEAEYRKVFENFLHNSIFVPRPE
Insulin-like growth factor 1 receptor, sequence (P08069 741-1367 limits assumed): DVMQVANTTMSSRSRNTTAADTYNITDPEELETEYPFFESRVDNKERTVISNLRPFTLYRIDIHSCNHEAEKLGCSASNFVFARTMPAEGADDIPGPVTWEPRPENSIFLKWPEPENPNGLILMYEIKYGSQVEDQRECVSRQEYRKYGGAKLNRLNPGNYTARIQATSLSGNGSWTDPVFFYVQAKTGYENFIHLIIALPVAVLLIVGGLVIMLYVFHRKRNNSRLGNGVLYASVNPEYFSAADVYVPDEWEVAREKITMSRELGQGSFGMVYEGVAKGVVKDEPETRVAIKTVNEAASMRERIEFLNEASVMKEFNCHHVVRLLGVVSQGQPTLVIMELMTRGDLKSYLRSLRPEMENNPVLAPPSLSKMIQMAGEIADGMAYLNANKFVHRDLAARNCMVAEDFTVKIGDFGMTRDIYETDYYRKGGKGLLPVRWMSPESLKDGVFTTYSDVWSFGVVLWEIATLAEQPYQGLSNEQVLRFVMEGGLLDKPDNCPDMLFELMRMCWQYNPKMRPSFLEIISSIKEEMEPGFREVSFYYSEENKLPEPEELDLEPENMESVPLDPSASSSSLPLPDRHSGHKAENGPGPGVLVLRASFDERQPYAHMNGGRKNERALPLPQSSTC

As to `Oc1ccc(CCCCc2ccc(Cl)c(Cl)c2)cc1O`, the IC50 in assay [1] came to 1 µM; in the assay with MCF7 it was 21.5 µM.

In the assay on MCF7, `COc1ccc(CCCCc2ccc(O)c(O)c2)cc1` showed an IC50 of 15.7 µM.

As to `Cc1ccc(CCCCc2ccc(O)c(O)c2)cc1`, the IC50 stood at 0.8 µM in assay [1] and 15.1 µM in the assay with MCF7.

On to `Oc1ccc(CCCCc2ccc(O)c(O)c2)cc1O`, for which the IC50 in assay [1] came out at 0.6 µM; in assay [2] it was 3.9 µM; in the assay with MCF7, 25.4 µM.

For `Oc1cc2c(cc1O)C(c1ccccc1)CCC2` (stereo not drawn), the results for the concentration for half-maximal inhibition (IC50) (in assay [1]; with MCF7) were 1 µM and 12.3 µM, respectively.

Take `Oc1ccc(CCCCc2ccc(O)c(O)c2)cc1`: the IC50 in assay [1] turned out to be 1 µM; in assay [2], 9.4 µM; in the assay on MCF7 it was 36.2 µM.

In the case of `Oc1ccc(CCCCc2ccc(Cl)cc2)cc1O`, the values for the IC50 (in assay [1]; in the assay on MCF7) were 0.8 µM and 13.4 µM, respectively.

As for `Oc1ccc(CCCCc2ccccc2)cc1O`, the concentration for half-maximal inhibition (IC50) is 7.3 µM in assay [2] and 11.2 µM in the assay on MCF7.

`CC(Cc1ccc(O)c(O)c1)C(C)Cc1ccc(O)c(O)c1` (stereo not drawn) [NORDIHYDROGUAIARETIC ACID] registered an IC50 in the assay with MCF7 of 24.6 µM.
